# Measurements from publication PMC9570490, “Novel Morpholine-Bearing Quinoline Derivatives as Potential Cholinesterase Inhibitors: The Influence of Amine, Carbon Linkers and Phenylamino Groups” (International Journal of Molecular Sciences, 2022).
# Entries after “also recorded” stand apart in the source; their conditions may differ. Where two headings read alike, the source gives them in different places. Marks after values point to notes of the source that are not given here.
# Assays:
# [1] = target: T1, AChE (EC 3.1.1.7, from electric eel) (Electrophorus electricus, UniProt O42275); assay: biochemical; conditions: for IC50: means ± SD, at least three independents
# T1 construct: purchased Sigma-Aldrich
# Description: (§1) AChE and BChE inhibitory activities of compounds were determined by using a modified Ellman’s method. AChE (EC 3.1.1.7, from electric eel), BChE (EC 3.1.1.8, from horse serum), 5,5′-dithiobis(2nitrobenzoic acid) (DTNB), acetylthiocholine iodide (ATCI) and butyrylthiocholine iodide (BTCI) were purchased from Sigma-Aldrich. The reaction mixture contained 140 μL of 100 mM sodium phosphate buffer (pH 8.0), the enzyme solution (either 0.05 U/mL of AChE, 20 μL; or 0.05 U/mL of BChE, 20 μL), and test compound (20 μL). Assayed solutions of test compounds were pre-incubated with corresponding ChE at 25 °C for 15 min. The reaction was initiated by the addition of 10 μL of 10 mM DTNB and 10 μL of 7.5 mM substrate (ATCI or BTCI). The activity was determined by measuring the increase in absorbance at 412 nm at 37 °C in 10 min intervals using a microplate reader. The percentage of inhibition was calculated from the measured data as follows: (Ac − Ai)/Ac × 100%, where Ai and Ac represent the change in the absorbance in the presence of inhibitor and without inhibitor, respectively.
# [2] = target: T2, BChE (EC 3.1.1.8, from horse serum) (Equus caballus, UniProt P81908); assay: biochemical; conditions: means ± SD, at least three independents
# T2 construct: BChE (EC 3.1.1.8, from horse serum); purchased Sigma-Aldrich; host or cells: horse serum
# Description: as §1
# AChE = target: T3, AChE (Electrophorus electricus, UniProt O42275); assay: Enzyme kinetic analysis against AChE (reversibility, Lineweaver-Burk, Ki); assay type: biochemical; conditions: for type of AChE inhibition: Lineweaver-Burk plots; for Ki: Lineweaver-Burk secondary plots, substrate ATCI, read-out: Ki (inhibition constant) against AChE; for reversibility of AChE inhibition: plots of initial velocity versus enzyme concentration
# T3 construct: purchased Sigma-Aldrich
# Description: The kinetic characteristics of two active compounds, 11a and 11g, against AChE was also studied to elucidate the type of inhibition and the inhibition constant. The analysis was carried out by measuring the enzyme’s activity at different concentrations of substrate (0 μM–10.0 μM). The acquired inhibition data were further depicted with the Lineweaver–Burk method followed by inhibition constant (Ki) calculation using Lineweaver–Burk secondary plots. […] This pattern of inhibition is usually the result of a combination of partially competitive and non-competitive inhibitors.
# In order to investigate the reversibility of compounds 11a and 11g to AChE, different concentrations of compounds (0−10 μM) and five different concentrations of AChE (0.025−0.10 U/mL) were measured at 412 nm after a 2 min incubation at 37 °C. Values were measured in triplicate for the velocity and enzyme concentration profiles. Velocity (V) was calculated from the measured data as follows: V = (Ac−Ai)/2, where Ai and Ac represent the change in absorbance in the presence and absence of […], respectively. All data were analyzed by OriginPro 2021.
# For each experiment, the reaction was started by adding substrate and the progression curve was recorded at 412 nm after two minutes of incubation at 37°C. […] The slopes of these inverse plots were then plotted against the compound concentrations in the correlation analysis, and Ki was determined as the intercept on the negative x-axis. All rate measurements were performed in triplicate and data analysis was performed using OriginPro 2021.
# [3] = Water solubility, shake-flask method; assay type: physicochemical; conditions: thermodynamic from solid, double distilled water, 37 °C
# Description: Water solubility is regarded as another vital descriptor for BBB penetration, where high solubility is considered as a prerequisite for a rapid absorption and higher bioavailability of a drug candidate. […] With this experiment, we have obtained their data as 0.62, 3.03, 12.9, and […] for the selected compounds 11a, 11g, 12a, and 12c, respectively.
# Solubility was determined by using the shake-flask method.The desired amount of the compound was placed in a test tube, to which an appropriate amount of double distilled water was introduced. The suspension was agitated on a plate shaker at 37 °C for 24 h. After centrifuging, HPLC analyses of supernatant was performed. The solubility of the compound was obtained from its HPLC result.
# [4] = Lipophilicity (LogP) determination, shake-flask octanol/water; assay type: physicochemical; conditions: HPLC, read-out: LogP (experimental)
# Text: For anti-Alzheimer drug candidates, the ability to cross the blood–brain barrier (BBB) and to enter the central nervous system (CNS) is crucial to achieve their pharmacological target binding and activity, and CNS drugs require more strict rules for a successful penetration. […] Besides, for molecules to penetrate the BBB, a topological polar surface area (TPSA) value less than 90 Å ^2 is usually needed and molecules with a TPSA of greater than 120 Å ^2 tend to be poor in permeating cell membranes. Therefore, the molar mass (MW), LogP, and TPSA of all target compounds were simulated by ChemDraw 19.0 (Table 1). […] Because LogP was thought as an important physicochemical parameter to evaluate the ability to cross BBB, the LogP of some compounds was further assessed in experiments.
# The lipophilicities of test compounds were determined using the traditional shake-flask method. A solid test compound (2 mg) was placed into a 10 mL pear-shaped flask, and measured volumes of octanol and water were added for logP determination. The resulting biphasic mixture was stirred for 24 h and then left without stirring for 12 h to allow phase separation. The test compound in each phase was sampled and quantitated using HPLC. The areas under the peaks were divided and the log taken.
# [5] = ABTS radical-scavenging assay
# Description: ABTS radical-scavenging activity was measured by using the modified method. The test compound was dissolved in ethanol as 1.0 mg/mL, 0.5 mg/mL, 0.25 mg/mL, 0.125 mg/mL, 0.0625 mg/mL, and 0.03125 mg/mL. Similarly, the ethanol solution of Trolox with the same concentration gradient was prepared as a positive control. ABTS solution at a concentration of 7 mM and potassium persulfate solution at a concentration of 2.45 mM with distilled water were also prepared. The ABTS solution and the potassium persulfate solution were mixed in equal amounts, and then placed in the dark and protected from light for 12 h. The ABTS standard solution was diluted with ethanol until the absorbance value at 734 nm was in the range of 0.7 ± 0.05. Then, 3900 µL of ABTS cation solution was mixed with 100 µL of test compound at different concentrations. The samples were kept in the dark for 10 min at room temperature and absorption was measured at 734 nm on a spectrophotometer. The percentage of ABTS radical-scavenging activity was calculated as follows: (Ac−Ai)/Ac × 100%, where Ai and Ac represented the change in absorbance in the presence and absence of the test sample, respectively.
# [6] = target: T1, AChE (EC 3.1.1.7, from electric eel); conditions: cited from earlier work
# [7] = target: T2, BChE (EC 3.1.1.8, from horse serum); conditions: cited from earlier work
# T1 sequence (O42275 24-633): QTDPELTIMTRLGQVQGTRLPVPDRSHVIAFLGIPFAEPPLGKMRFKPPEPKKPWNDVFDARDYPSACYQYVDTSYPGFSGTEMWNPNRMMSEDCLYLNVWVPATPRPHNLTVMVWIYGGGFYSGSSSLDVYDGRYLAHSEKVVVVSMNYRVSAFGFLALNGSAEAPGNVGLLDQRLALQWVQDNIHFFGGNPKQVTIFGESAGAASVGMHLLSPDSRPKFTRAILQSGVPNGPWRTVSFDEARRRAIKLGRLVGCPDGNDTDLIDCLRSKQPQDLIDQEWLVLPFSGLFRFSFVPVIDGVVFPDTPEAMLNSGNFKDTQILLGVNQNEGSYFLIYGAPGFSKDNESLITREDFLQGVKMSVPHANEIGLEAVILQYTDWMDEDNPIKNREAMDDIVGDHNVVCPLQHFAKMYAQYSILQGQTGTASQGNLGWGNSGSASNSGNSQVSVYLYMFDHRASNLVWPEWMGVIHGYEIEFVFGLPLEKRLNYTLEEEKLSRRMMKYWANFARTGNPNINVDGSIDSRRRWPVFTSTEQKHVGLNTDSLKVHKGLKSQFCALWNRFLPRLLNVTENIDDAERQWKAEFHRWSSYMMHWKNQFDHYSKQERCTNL
# T3 sequence (O42275 24-633): as above
# T2 sequence (P81908 whole entry): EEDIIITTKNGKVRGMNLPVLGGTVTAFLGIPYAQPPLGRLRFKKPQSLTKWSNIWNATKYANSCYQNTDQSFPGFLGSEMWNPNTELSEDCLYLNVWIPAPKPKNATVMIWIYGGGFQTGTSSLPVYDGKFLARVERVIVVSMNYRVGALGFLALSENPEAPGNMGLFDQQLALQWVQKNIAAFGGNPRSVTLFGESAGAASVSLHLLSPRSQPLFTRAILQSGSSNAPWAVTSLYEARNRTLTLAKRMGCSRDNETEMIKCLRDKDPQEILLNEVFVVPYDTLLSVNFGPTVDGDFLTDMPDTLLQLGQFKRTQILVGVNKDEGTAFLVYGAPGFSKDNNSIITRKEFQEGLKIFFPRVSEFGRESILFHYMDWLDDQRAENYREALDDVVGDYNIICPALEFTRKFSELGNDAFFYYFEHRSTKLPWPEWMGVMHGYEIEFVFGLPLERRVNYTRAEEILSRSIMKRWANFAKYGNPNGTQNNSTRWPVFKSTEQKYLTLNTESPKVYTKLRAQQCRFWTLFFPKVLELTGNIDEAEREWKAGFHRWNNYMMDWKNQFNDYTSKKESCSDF
SMILES,SI for AChE = IC50 BChE/IC50 AChE [1],IC50 [1] [µM],IC50 [2] [µM],type of AChE inhibition (AChE),Ki (AChE) [nM],reversibility of AChE inhibition (AChE),solubility at 24 h [3] [µg/mL],logP at 24 h [4],ABTS radical-scavenging IC50 [5] [µg/mL],IC50 [5] [µM],SI for AChE = IC50 BChE/IC50 AChE [6],IC50 [6] [nM],IC50 [7] [µM]
"COc1cc2c(Nc3ccccc3)c([N+](=O)[O-])cnc2cc1OCCCN1CCOCC1 [11a, 6-Methoxy-7-(3-Morpholinopropoxy)-3-Nitro-4-Phenylamino-Quinoline]",16.37,4.94 ± 0.15,80.9 ± 2.31,mixed-type AChE inhibitors; also recorded: mixed type of inhibition,2030,reversible inhibitors,620,3.82,–,–,–,–,–
"COc1cc2c(Nc3ccccc3)c([N+](=O)[O-])cnc2cc1OCCN1CCOCC1 [11g, 6-Methoxy-7-(2-Morpholinoethoxy)-3-Nitro-4-Phenylamino-Quinoline]",–,1.94 ± 0.13,28.4 ± 1.85,mixed-type AChE inhibitors; also recorded: mixed type of inhibition,640,reversible inhibitors,3030,3.55,17.50 ± 2.71,41.2 ± 6.38,–,–,–
COc1cc2c(Nc3ccccc3Cl)c([N+](=O)[O-])cnc2cc1OCCCN(C)Cc1ccccc1 [B],–,–,–,–,–,–,–,–,–,–,3.08 ^e,–,–
COc1ccc(Nc2c([N+](=O)[O-])cnc3cc(OCCCN4CCC(C)CC4)c(OC)cc23)cc1 [C],–,–,–,–,–,–,–,–,–,–,15.43 ^f,1200 ± 180,18.5 ± 1.2
